Assay results as given in patent publication US4814332A, “Antimicrobial 1,3-disubstituted/imidazolium salts” (Hoffman-La Roche Inc., priority 1986, dated 1989).

Legend:
[1] = system: Litomosoides carinii; assay: filaricidal activity on cotton rats infected with Litomosoides carinii; format: in vivo, Litomosoides carinii (in cotton rats, Sigmodon hispidus); details: sc, 1008 h, s.c., L. carinii-infected cotton rats, treated 14 weeks after infection, dissected 42 days after treatment, Probit analysis, read-out: ED90 (dosage at which 90% of the worms removed from the pleural cavity are dead)
Procedure: (§1) The filaricidal activity of the compounds of formula I can be determined, for example, on cotton rats (Sigmodon hispidus) which have been infected with Litomosoides carinii. The infection with L. carinii is transmitted by the blood-sucking mite Bdellonyssus bacoti in which the development of the microfilaria in infectious larvae takes place. The cotton rats are infected by exposing them to bites of infected mites. After fourteen (14) weeks, the infected groups of 2-4 animals are treated subcutaneously with the compound to be tested. Forty two (42) days after treatment with the compound to be tested, the experimental animals are dissected, and the adult filaria are removed from the pleural cavity. Living and dead or encapsulated worms are separated from one another and weighed. The filaricidal activity is expressed as the percentage proportion of dead macrofilaria per treatment group. The ED90 is then determined by means of Probit analysis using the values from different dosage groups. The ED90 is that dosage at which 90% of the worms removed from the pleural cavity are dead. In the following Table, the results which were obtained in the previously described test with representative members of the class of compound defined by formula I are compiled. Moreover, the Table contains data concerning the acute toxicity of some of the compounds of formula I in mg per kg obtained after single oral administration to mice.

[2] = acute toxicity after single oral administration to mice; details: mouse, in vivo, p.o.
Procedure: as §1, with “Moreover, the Table contains data concerning the acute toxicity of some of the compounds of formula I in mg per kg obtained after single oral administration to mice.” left out

| Structure (SMILES) | ED90 [1] | LD50 [2] |
| --- | --- | --- |
| CN(C)C=Cc1n(N=Cc2ccc(N(C)C)cc2)cc[n+]1N=Cc1ccc(N(C)C)cc1.[Cl-] [Compound A, 1,3-bis[[p-(dimethylamino)benzylidene]amino]-2-[2-(dimethylamino)vinyl]imidazolium chloride] | 1 mg/kg | 312 to 625 mg/kg |
| CN(C)c1ccc(C=Nn2cc[n+](N=Cc3ccc(N(C)C)cc3)c2C=CN2CCCCC2)cc1.[Cl-] [Compound B, 1,3-bis[[p-(dimethylamino)benzylidene]amino]-2-(2-piperidinovinyl)imidazolium chloride] | 2 mg/kg | – |
| CN(C)c1ccc(C=Nn2cc[n+](N=Cc3ccc(N(C)C)cc3)c2C=CN2CCOCC2)cc1.[Cl-] [Compound C, 1,3-bis[[p-(dimethylamino)benzylidene]amino]-2-(2-morpholinovinyl)imidazolium chloride] | 0.55 mg/kg | – |
| CN(C)c1ccc(C=Nn2cc[n+](N=Cc3ccc(N(C)C)cc3)c2-c2ccccc2)cc1.[Cl-] [Compound D, 1,3-bis[[p-(dimethylamino)benzylidene]amino]-2-phenylimidazolium chloride] | < 1 mg/kg | 1250 to 2500 mg/kg |
